Reference: patent publication US20070299047A1, “Combination of Organic Compounds” (priority 2004, published 2007)

Key:
[1] = system: ob/ob mice; experiment: Food intake in ob/ob mice after seven days of treatment; type: in vivo; details: 5 mg/kg/day
[2] = system: Chrna2 (cholinergic receptor, neuronal nicotinic, alpha polypeptide 2); experiment: Chrna2 gene expression in the duodenum of treated ob/ob mice; type: in vivo; details: p<0.01

For `Cc1oc(-c2ccc(C(F)(F)F)cc2)nc1COc1ccc(S(=O)(=O)N2c3ccccc3C[C@@H]2C(=O)O)cc1` [(R)-1-{4-[5-methyl-2-(4-trifluoromethyl-phenyl)-oxazol-4-ylmethoxy]-benzenesulfonyl}-2,3-dihydro-1H-indole-2-carboxylic acid], the “daily food intake down by” value ([1]; by day 7, p<0.01) was 50%, the “food intake compared to vehicle” value ([1]; starting on day 3) was “significantly lowered food intake” and the “Chrna2 expression in the duodenum increased by” value ([2]; after 1 day of treatment) was 15 fold. For the same compound, the “Chrna2 expression in the duodenum increased by” value ([2]; after 2 days of treatment) was 11 fold and the “Chrna2 expression in the duodenum increased by” value ([2]; after 7 days of treatment) was roughly 140 fold.
